Assay [1] deals with T1, rat GPR14 (U-II receptor) (Rattus norvegicus, UniProt P49684).
T1 construct: expressed in transfected cells
T1 sequence (P49684 1-386): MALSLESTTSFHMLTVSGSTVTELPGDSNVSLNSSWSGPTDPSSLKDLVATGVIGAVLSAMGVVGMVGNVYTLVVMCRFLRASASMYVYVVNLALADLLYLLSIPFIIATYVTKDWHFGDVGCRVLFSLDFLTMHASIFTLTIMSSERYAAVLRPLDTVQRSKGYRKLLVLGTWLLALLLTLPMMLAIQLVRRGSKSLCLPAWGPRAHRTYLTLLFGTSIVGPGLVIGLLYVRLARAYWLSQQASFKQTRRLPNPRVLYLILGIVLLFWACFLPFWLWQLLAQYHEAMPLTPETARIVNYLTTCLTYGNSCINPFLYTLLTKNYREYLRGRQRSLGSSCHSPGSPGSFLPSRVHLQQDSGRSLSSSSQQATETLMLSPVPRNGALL
The experiment in a line: Rat UII Calcium Mobilization FLIPR Assay. The assay is classed as cell-based. The settings on record: for inhibition at 10 µM / inhibition at 50 µM: CHO, 5 min, agonist-induced Ca2+ mobilization (FLIPR), CHO cells with rat UII receptor; for inhibition at 10 µM: 10 μM compound, read-out: % I @ 10; for inhibition at 50 µM: 50 μM compound, read-out: % I @ 50. An outline of the steps:
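CHO cells stably expressing rat U-II receptor, seeded 24 h before assay, were loaded with FLIPR calcium dye in HBSS/20 mM HEPES/0.1% BSA/2.5 mM probenecid, pH 7.4, for 1 h at 37° C. Calcium mobilization then read by FLIPR at 23° C.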
On the technique in general: Calcium assays in cells follow changes in intracellular calcium, usually with a dye or a luminescent sensor.

In assay [2] the target is T2, endogenous human UII receptor (Homo sapiens, UniProt Q9UKP6).
T2 sequence (Q9UKP6 1-389): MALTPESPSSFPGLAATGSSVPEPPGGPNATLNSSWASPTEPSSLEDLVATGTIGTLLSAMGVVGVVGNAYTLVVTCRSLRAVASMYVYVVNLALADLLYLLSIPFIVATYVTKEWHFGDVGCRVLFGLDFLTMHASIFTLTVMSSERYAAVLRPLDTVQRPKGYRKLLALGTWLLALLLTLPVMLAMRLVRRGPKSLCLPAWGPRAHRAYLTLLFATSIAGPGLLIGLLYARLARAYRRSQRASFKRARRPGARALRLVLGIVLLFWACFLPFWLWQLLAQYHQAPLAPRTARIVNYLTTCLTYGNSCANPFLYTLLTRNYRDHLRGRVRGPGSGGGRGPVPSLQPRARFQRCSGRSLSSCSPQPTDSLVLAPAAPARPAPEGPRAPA
The experiment in a line: Human Radioligand Binding Assay ((^125I)-U-II binding to human skeletal muscle myoblasts).

Where [3] appears, read: Inhibition of Acetyl-cyclic[Cys-Phe-Trp-Lys-(2-Nal)-Cys]-NH2 induced Ca2+ mobilization (FLIPR) in CHO cells transfected with rat UII receptor, read-out: IC50.
Where [4] appears, read: average value for the compound tested, read-out: Rat UII FLIPR Average IC50.

SMILES strings stand for the structures. Values joined by “and” are separate entries in the source; they are usually repeats but may differ in a detail not shown here. Equal entries are not always repeated. Where two headings read alike, the source gives them in different places.

For the molecule `COc1ccc(C(CCCCN)N2C(=O)c3cccc(N4CCN([C@H](C)c5ccccc5)CC4)c3C2=O)cc1OC` (stereo partly drawn) [Cpd 70, 2-[5-amino-1-(3,4-dimethoxy-phenyl)-pentyl]-4-[4-(1R)-(1-phenyl-ethyl)-piperazin-1-yl]-isoindole-1,3-dione], in assay [1], the inhibition at 10 µM came to 102% and the inhibition at 50 µM was 101%. Further, the half-maximal inhibitory concentration (IC50) (in general, the concentration at which inhibition is half-maximal) in assay [1] (setting [3]) was 300 nM and 270 nM. For the same molecule, the affinity in assay [2] corresponds to a Ki of 5400 nM.
As to `COc1ccc(CN2C(=O)c3cccc(C4CCN(Cc5ccccc5)CC4)c3C2=O)cc1OC` [Cpd 76, 4-(1-benzyl-piperidin-4-yl)-2-(3,4-dimethoxy-benzyl)-isoindole-1,3-dione], in assay [1], the inhibition at 10 µM was found to be 98% and the inhibition at 50 µM came out at 99%. The IC50 in assay [1] (setting [3]) is 960 nM. In addition, the Ki (in general, the equilibrium dissociation constant of an inhibitor or competing ligand from its target) in assay [2] worked out at 1500 nM.
`COc1ccc(CN2C(=O)c3cccc(N4CCN(Cc5ccc(C)o5)CC4)c3C2=O)cc1OC` [Cpd 77, 2-(3,4-dimethoxy-benzyl)-4-[4-(5-methyl-furan-2-ylmethyl)-piperazin-1-yl]-isoindole-1,3-dione]: in assay [1] (setting [4]), the half-maximal inhibitory concentration (IC50) is 850 nM. In assay [2], this molecule had a Ki of 7200 nM.
In the case of `COc1ccc(CN2C(=O)c3cccc(N4CCN(Cc5ccoc5)CC4)c3C2=O)cc1OC` [Cpd 78, 2-(3,4-dimethoxy-benzyl)-4-(4-furan-3-ylmethyl-piperazin-1-yl)-isoindole-1,3-dione], the IC50 in assay [1] (setting [4]) was found to be 270 nM. In assay [2], this molecule registered a Ki of 2600 nM.
For `COc1ccc(CN2C(=O)c3cccc(N4CCN(Cc5cccnc5)CC4)c3C2=O)cc1OC` [Cpd 79, 2-(3,4-dimethoxy-benzyl)-4-(4-pyridin-3-ylmethyl-piperazin-1-yl)-isoindole-1,3-dione] the same measures were 1200 nM and more than 10000 nM.
As for `COc1ccc(CN2C(=O)c3cccc(N4CCN(CC5CCCC5)CC4)c3C2=O)cc1OC` [Cpd 80, 4-(4-cyclopentylmethyl-piperazin-1-yl)-2-(3,4-dimethoxy-benzyl)-isoindole-1,3-dione], in assay [1] (setting [4]), the 50% inhibitory concentration (IC50) was 1300 nM. Also, in assay [2], the Ki was more than 10000 nM.
For `COc1ccc(CN2C(=O)c3cccc(N4CCN(Cc5cccs5)CC4)c3C2=O)cc1OC` [Cpd 81, 2-(3,4-dimethoxy-benzyl)-4-(4-thiophen-2-ylmethyl-piperazin-1-yl)-isoindole-1,3-dione] the same measures were 1400 nM and more than 10000 nM.
With `COc1ccc(CN2C(=O)c3cccc(N4CCN(Cc5ccsc5)CC4)c3C2=O)cc1OC` [Cpd 83, 2-(3,4-dimethoxy-benzyl)-4-(4-thiophen-3-ylmethyl-piperazin-1-yl)-isoindole-1,3-dione], in assay [1] (setting [4]), the 50% inhibitory concentration (IC50) came out at 230 nM. The Ki in assay [2] is 1600 nM.
With `COc1ccc(CN2C(=O)c3cccc(N4CCN(Cc5ccccc5O)CC4)c3C2=O)cc1OC` [Cpd 85, 2-(3,4-dimethoxy-benzyl)-4-[4-(2-hydroxy-benzyl)-piperazin-1-yl]-isoindole-1,3-dione], in assay [1] (setting [4]), the IC50 was determined as 2200 nM. The same molecule showed an inhibition constant (Ki) in assay [2] of 3600 nM.
For `C/C=C(\C)CN1CCN(c2cccc3c2C(=O)N(Cc2ccc(OC)c(OC)c2)C3=O)CC1` [Cpd 86, (E)-2-(3,4-dimethoxy-benzyl)-4-[4-(2-methyl-but-2-enyl)-piperazin-1-yl]-isoindole-1,3-dione] the same measures were 290 nM and 1300 nM.
For `COc1ccc([C@@H](CCCNS(=O)(=O)c2ccc(C)s2)N2C(=O)c3cccc(N4CCN([C@H](C)c5ccccc5)CC4)c3C2=O)cc1OC` [Cpd 126, (R)-5-methyl-thiophene-2-sulfonic acid (4-(3,4-dimethoxy-phenyl)-4-{1,3-dioxo-4-[4-(1R)-(1-phenyl-ethyl)-piperazin-1-yl]-1,3-dihydro-isoindol-2-yl}-butyl)-amide], in assay [1] (setting [4]), the IC50 was 81 nM. The molecule also registered an inhibitory constant (Ki) in assay [2] of 340 nM.
For `COc1ccc([C@@H](CCCNS(=O)(=O)c2sc(NC(C)=O)nc2C)N2C(=O)c3cccc(N4CCN([C@H](C)c5ccccc5)CC4)c3C2=O)cc1OC` [Cpd 130, (R)-N-[5-(4-(3,4-dimethoxy-phenyl)-4-{1,3-dioxo-4-[4-(1R)-(1-phenyl-ethyl)-piperazin-1-yl]-1,3-dihydro-isoindol-2-yl}-butylsulfamoyl)-4-methyl-thiazol-2-yl]-acetamide] the same measures were 54 nM and more than 300 nM.
As for `COc1ccc([C@@H](CCCNS(=O)(=O)c2cc(C)sc2C)N2C(=O)c3cccc(N4CCN([C@H](C)c5ccccc5)CC4)c3C2=O)cc1OC` [Cpd 131, (R)-2,5-dimethyl-thiophene-3-sulfonic acid (4-(3,4-dimethoxy-phenyl)-4-{1,3-dioxo-4-[4-(1R)-(1-phenyl-ethyl)-piperazin-1-yl]-1,3-dihydro-isoindol-2-yl}-butyl)-amide], the IC50 in assay [1] (setting [4]) amounted to 120 nM. In assay [2], this molecule displayed a Ki of more than 300 nM.
`COc1ccc([C@@H](CCCNS(=O)(=O)C2CCS(=O)(=O)C2)N2C(=O)c3cccc(N4CCN([C@H](C)c5ccccc5)CC4)c3C2=O)cc1OC` (stereo partly drawn) [Cpd 133, (R)-1,1-dioxo-tetrahydro-1λ^6-thiophene-3-sulfonic acid (4-(3,4-dimethoxy-phenyl)-4-{1,3-dioxo-4-[4-(1R)-(1-phenyl-ethyl)-piperazin-1-yl]-1,3-dihydro-isoindol-2-yl}-butyl)-amide]: the IC50 in assay [1] (setting [4]) came out at 14 nM. In assay [2], this molecule came in with an inhibition constant (Ki) of 59 nM.
Regarding `CCn1cc(S(=O)(=O)NCCC[C@H](c2ccc(OC)c(OC)c2)N2C(=O)c3cccc(N4CCN([C@H](C)c5ccccc5)CC4)c3C2=O)cn1` [Cpd 134, (R)-1-ethyl-1H-pyrazole-4-sulfonic acid (4-(3,4-dimethoxy-phenyl)-4-{1,3-dioxo-4-[4-(1R)-(1-phenyl-ethyl)-piperazin-1-yl]-1,3-dihydro-isoindol-2-yl}-butyl)-amide], the 50% inhibitory concentration (IC50) in assay [1] (setting [4]) is 19 nM. The molecule also gave a Ki in assay [2] of 68 nM.
With `COc1ccc([C@@H](CCCNS(=O)(=O)c2cn(C)nc2C(F)(F)F)N2C(=O)c3cccc(N4CCN([C@H](C)c5ccccc5)CC4)c3C2=O)cc1OC` [Cpd 135, (R)-1-methyl-3-trifluoromethyl-1H-pyrazole-4-sulfonic acid (4-(3,4-dimethoxy-phenyl)-4-{1,3-dioxo-4-[4-(1R)-(1-phenyl-ethyl)-piperazin-1-yl]-1,3-dihydro-isoindol-2-yl}-butyl)-amide], the IC50 in assay [1] (setting [4]) came out at 56 nM. This molecule also displayed a Ki in assay [2] of 190 nM.
For `COc1ccc([C@@H](CCNC(=O)OCc2ccccc2)N2C(=O)c3cccc(N4CCN([C@H](C)c5ccccc5)CC4)c3C2=O)cc1OC` [Cpd 216, (R)-(3-(3,4-dimethoxy-phenyl)-3-{1,3-dioxo-4-[4-(1R)-(1-phenyl-ethyl)-piperazin-1-yl]-1,3-dihydro-isoindol-2-yl}-propyl)-carbamic acid benzyl ester] the same measures were 64 nM and 130 nM.
